Laboratory results reported in patent publication US7449301B2, “Pharmaceutical composition and method for activating macrophage using the same” (National University Corporation Gunma University, priority 2004, dated 2008).

Legend:
Type in all cases: cell-based, mouse
PEMs = experiment: Immunocytofluorescence of PEMs (morphology, F-actin, activated MAPK); conditions: PEMs treated with mAb80 in presence of inhibitor; FIG. 4B
Method: PEMs treated with rat IgG, mAb80 or mAb84 were fixed for 20 to 30 min at room temperature in PBS containing 4% paraformaldehyde and 0.1% glutaraldehyde, and were then permeabilized for 60 min at room temperature in PBS containing 0.1% Triton X-100 and 5% goat serum (blocking solution). After incubation for 1 h at room temperature or overnight at 4° C. with primary antibody (anti-activated MAPK antibody) diluted in blocking solution, the cells were washed with PBS and incubated for 1 h at room temperature with Alexa488-conjugated secondary antibodies (Molecular Probes) diluted in blocking solution. For visualization of F-actin, cells were incubated with rhodamine-conjugated phalloidin (Molecular Probes) together with the secondary antibodies. The cells were finally washed with PBS and mounted. Fluorescence images were acquired with a laser-scanning confocal microscope (LSM5 PASCAL, Zeiss) (FIG. 4).

[1] = test system: peritoneal macrophages (PEMs); experiment: Phagocytosis assay of PEMs with RBCs (phagocytosis index); conditions: PEMs preincubated 30 min with ML-7 10 μM or BDM 50 mM; IgG-opsonized RBCs 5 min; FIG. 3
MAPK = experiment: Immunoblot of activated (phosphorylated) MAPK in PEMs; conditions: 50 μM PD98059 or 2 μM U0126, FIG. 2B, C bottom
Method: PEMs were treated with anti-SIRPβ antibody or control IgG, and a secondary antibody, and incubated at 37° C. for 10 min. As a positive control, PEMs were incubated at 37° C. for 10 min in the presence of M-CSF (macrophage colony stimulating factor) (10 ng/ml). As a negative control, non-treated PEMs were used. Then, cells were lysed and subjected to immunoblot analysis using an anti-MAPK antibody (αMAPK), anti-activated (phosphorylated) MAPK antibody (αpMAPK), anti-MEK antibody (αMEK) or anti-activated MEK antibody (αpMEK) (FIG. 2A).
Then, the MEK inhibitors, PD98059 and U0126 were used to examine the role of MAPK-MEK pathway in the macrophage activation by an anti-SIRPβ antibody. PEMs were incubated in the presence or absence of 50 μM PD98059 or 2 μM U0126 at 37° C. for 30 min, and then treated with an anti-SIRPβ antibody or control IgG, and a secondary antibody. After incubation with IgG-opsonized RBCs at 37° C. for 5 min, cells were fixed and phagocytosis index was calculated (FIG. 2B, C; upper figures). On the other hand, PEMs were treated with an anti-SIRPβ antibody or control IgG, and a secondary antibody in the presence or absence of the inhibitors, followed by an analysis using an anti-MAPK antibody (αMAPK) and an anti-activated (phosphorylated) MAPK antibody (αpMAPK) (FIG. 2B, C; bottom figures). […]

| Compound | effect of inhibitor on morphological change of PEMs induced by anti-SIRPβ antibody (PEMs) | effect of inhibitor on anti-SIRPβ antibody activation of macrophage-mediated phagocytosis [1] | activation of MAPK by mAb80 and mAb84 in the presence of MEK inhibitor (MAPK) |
| --- | --- | --- | --- |
| O=S(=O)(c1cccc2c(I)cccc12)N1CCCNCC1 [ML-7] | markedly inhibited | attenuated the activation of macrophages-mediated phagocytosis |  |
| COc1cccc(-c2cc(=O)c3ccccc3o2)c1N [PD98059] | markedly inhibited |  | did not occur |
| N#CC(=C(/N)Sc1ccccc1N)/C(C#N)=C(\N)Sc1ccccc1N [U0126] |  |  | did not occur |
| CC(=O)C(C)=NO [BDM, 2,3-butanedione 2-monoxime] |  | attenuated the activation of macrophages-mediated phagocytosis |  |
